# Assay results taken from patent US12043599B2, “Herbicidal compounds” (SYNGENTA PARTICIPATIONS AG, priority 2018, dated 2024).
# Tests used:
# Type in all cases: in vivo
# Details in all cases: 250 g/h, evaluated after 13 days
# Avena fatua (AVEFA) [1] = experiment: Post-emergence herbicidal glasshouse test, percentage damage
# How it was run: (§1)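 Percentage damage, read 13 days after treatment and banded into five classes (1=0-19% up to 5=80-100%). Plants in pots of standard soil received 250 g/h as a spray from acetone/water (50:50) containing 0.5% Tween 20. Application was one day (pre-emergence) or eight days (post-emergence) after sowing.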
# Lolium perenne (LOLPE) [2] = experiment: as above
# How it was run: as §1
# [3] = tested on: Echinochloa crus-galli (ECHCG); experiment: as above
# How it was run: as §1
# [4] = tested on: Alopecurus myosuroides (ALOMY); experiment: as above
# How it was run: as §1
# Setaria faberi (SETFA) [5] = experiment: as above
# How it was run: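 Wheat, barley and Setaria faberi were sprayed post-emergence after 8 days' growth (24/16 °C, 14 h light, 65% humidity) with compound in acetone/water (50:50) containing 0.5% Tween 20, at the indicated rates. On wheat, compounds were also applied with cloquintocet-mexyl at 50 g/ha. Damage was scored after 13 days on a five-point scale (5=80-100% to 1=0-19%).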
# Avena fatua (AVEFA) [6] = experiment: Pre-emergence herbicidal glasshouse test, percentage damage
# How it was run: as §1
# Lolium perenne (LOLPE) [7] = experiment: as above
# How it was run: as §1
# [8] = tested on: Echinochloa crus-galli (ECHCG); experiment: as above
# How it was run: as §1
# [9] = tested on: Alopecurus myosuroides (ALOMY); experiment: as above
# How it was run: as §1
# Setaria faberi (SETFA) [10] = experiment: as above
# How it was run: as §1
SMILES,AVEFA POST percentage damage (five point scale) (Avena fatua (AVEFA) [1]),LOLPE POST percentage damage (five point scale) (Lolium perenne (LOLPE) [2]),ECHCG POST percentage damage (five point scale) [3],ALOMY POST percentage damage (five point scale) [4],SETFA POST percentage damage (five point scale) (Setaria faberi (SETFA) [5]),AVEFA PRE percentage damage (five point scale) (Avena fatua (AVEFA) [6]),LOLPE PRE percentage damage (five point scale) (Lolium perenne (LOLPE) [7]),ECHCG PRE percentage damage (five point scale) [8],ALOMY PRE percentage damage (five point scale) [9],SETFA PRE percentage damage (five point scale) (Setaria faberi (SETFA) [10])
CC#Cc1cc(C)c(C2C(=O)CC3(CCN(C(=O)N(C)OC)CC3)CC2=O)c(C)c1 [Compound A9],5 (5=80-100%),5 (5=80-100%),5 (5=80-100%),5 (5=80-100%),5 (5=80-100%),5 (5=80-100%),5 (5=80-100%),5 (5=80-100%),5 (5=80-100%),5 (5=80-100%)
"CC#Cc1cc(C)c(C2C(=O)CC3(CCN(C(=O)OC(C)(C)C)CC3)CC2=O)c(C)c1 [Compound A12, tert-butyl 9-(2,6-dimethyl-4-prop-1-ynyl-phenyl)-8,10-dioxo-3-azaspiro[5.5]undecane-3-carboxylate]",5 (5=80-100%),5 (5=80-100%),5 (5=80-100%),5 (5=80-100%),5 (5=80-100%),4 (4=60-79%),5 (5=80-100%),5 (5=80-100%),4 (4=60-79%),5 (5=80-100%)
CC#Cc1cc(C)c(C2C(=O)CC3(CCN(C(=O)N4CCOCC4)CC3)CC2=O)c(C)c1 [Compound A13],5 (5=80-100%),5 (5=80-100%),5 (5=80-100%),5 (5=80-100%),5 (5=80-100%),5 (5=80-100%),5 (5=80-100%),5 (5=80-100%),5 (5=80-100%),5 (5=80-100%)
CC#Cc1cc(C)c(C2C(=O)CC3(CCN(C(=O)c4cnccn4)CC3)CC2=O)c(C)c1 [Compound A16],5 (5=80-100%),5 (5=80-100%),5 (5=80-100%),5 (5=80-100%),5 (5=80-100%),5 (5=80-100%),5 (5=80-100%),5 (5=80-100%),5 (5=80-100%),5 (5=80-100%)
CC#Cc1cc(C)c(C2C(=O)CC3(CCN(C(=O)c4ccncn4)CC3)CC2=O)c(C)c1 [Compound A18],5 (5=80-100%),5 (5=80-100%),5 (5=80-100%),5 (5=80-100%),5 (5=80-100%),5 (5=80-100%),5 (5=80-100%),5 (5=80-100%),5 (5=80-100%),5 (5=80-100%)
CC#Cc1cc(C)c(C2C(=O)CC3(CCN(C(=O)c4ncccn4)CC3)CC2=O)c(C)c1 [Compound A19],5 (5=80-100%),5 (5=80-100%),5 (5=80-100%),5 (5=80-100%),5 (5=80-100%),5 (5=80-100%),5 (5=80-100%),5 (5=80-100%),5 (5=80-100%),5 (5=80-100%)
CC#Cc1cc(C)c(C2C(=O)CC3(CCN(C(=O)Nc4cccnc4)CC3)CC2=O)c(C)c1 [Compound A22],5 (5=80-100%),5 (5=80-100%),5 (5=80-100%),5 (5=80-100%),5 (5=80-100%),5 (5=80-100%),5 (5=80-100%),5 (5=80-100%),5 (5=80-100%),5 (5=80-100%)
CC#Cc1cc(C)c(C2C(=O)CC3(CCN(c4ncccn4)CC3)CC2=O)c(C)c1 [Compound A37],5 (5=80-100%),5 (5=80-100%),5 (5=80-100%),5 (5=80-100%),5 (5=80-100%),4 (4=60-79%),5 (5=80-100%),5 (5=80-100%),5 (5=80-100%),5 (5=80-100%)
CC#Cc1cc(C)c(C2C(=O)CC3(CCN(C(=O)C4CCOCC4)CC3)CC2=O)c(C)c1 [Compound A38],4 (4=60-79%),5 (5=80-100%),5 (5=80-100%),5 (5=80-100%),5 (5=80-100%),3 (3=40-59%),5 (5=80-100%),5 (5=80-100%),5 (5=80-100%),5 (5=80-100%)
CC#Cc1cc(C)c(C2C(=O)CC3(CCN(S(=O)(=O)CC4COCCO4)CC3)CC2=O)c(C)c1 (centres unmarked) [Compound A39],5 (5=80-100%),5 (5=80-100%),5 (5=80-100%),5 (5=80-100%),5 (5=80-100%),4 (4=60-79%),5 (5=80-100%),5 (5=80-100%),4 (4=60-79%),5 (5=80-100%)
CC#Cc1cc(C)c(C2C(=O)CC3(CCN(C(=O)Nc4ccccn4)CC3)CC2=O)c(C)c1 [Compound A41],5 (5=80-100%),5 (5=80-100%),5 (5=80-100%),4 (4=60-79%),5 (5=80-100%),4 (4=60-79%),5 (5=80-100%),5 (5=80-100%),4 (4=60-79%),5 (5=80-100%)
CC#Cc1cc(C)c(C2C(=O)CC3(CCN(S(=O)(=O)c4ccccn4)CC3)CC2=O)c(C)c1 [Compound A70],5 (5=80-100%),5 (5=80-100%),5 (5=80-100%),5 (5=80-100%),5 (5=80-100%),5 (5=80-100%),5 (5=80-100%),5 (5=80-100%),5 (5=80-100%),5 (5=80-100%)
CC#Cc1cc(C)c(C2C(=O)CC3(CCN(C(=O)NC(C)=O)CC3)CC2=O)c(C)c1 [Compound A71],5 (5=80-100%),5 (5=80-100%),5 (5=80-100%),5 (5=80-100%),5 (5=80-100%),5 (5=80-100%),5 (5=80-100%),5 (5=80-100%),5 (5=80-100%),5 (5=80-100%)
CC#Cc1cc(C)c(C2C(=O)CC3(CCN(S(=O)(=O)CC)CC3)CC2=O)c(OC)c1 [Compound A72],5 (5=80-100%),5 (5=80-100%),5 (5=80-100%),5 (5=80-100%),5 (5=80-100%),5 (5=80-100%),5 (5=80-100%),5 (5=80-100%),5 (5=80-100%),5 (5=80-100%)
